Measured values: US6008240A, “2-(1H-4(5)-imidazoyl) cyclopropyl derivatives” (Gliatech, Inc., priority 1997, dated 1999)
Counter-ions that a name gives are not always drawn. Like-named read-outs stand apart in the source and are kept apart here.

Target: T1, Histamine H3 Receptor (Rattus norvegicus, UniProt Q9QYN8)
T1 construct: from tissue; host or cells: rat cerebral cortex membranes
Experiment: In Vitro Histamine H3 Receptor Binding Analysis ([3H]-Nα-methylhistamine, rat cortical membranes)
Protocol: Histamine H3 receptor affinity was determined in rat cortical membranes using the H3 selective agonist ligand, [^3 H]-N^α -methylhistamine (78.9 Ci/mmole, DuPont NEN Research Products, Boston, Mass.) according to the method of West et al., (1990) Mol. Pharmacol. 38: 610-613 with modifications. Briefly, animals were sacrificed by decapitation and the cerebral cortex was rapidly removed. Rat cortices were mechanically homogenized with an Omni 1000 motor driven homogenizer in 10 volumes (wt/vol) of Krebs-Ringers Hepes buffer (pH 7.4) containing the following protease inhibitors; EDTA (10 mmol), PMSF (0.1 mM), chymostatin (0.2 mg/50 mL) and leupeptin (0.2 mg/50 mL). The homogenate was centrifuged in a Sorvall at ~40,000 x g for 30 min. The pellet was resuspended by mechanical homogenization in 25 mL water and lysed on ice for 30 min. The homogenate was recentrifuged and the membrane lysis was repeated. The membranes were recentrifuged and the final pellet was resuspended in 14 volumes of water to give approximately 200 μg protein/100 μl final concentration. The suspension was stored at -80° C. prior to use. Protein concentrations were determined by Coomassie Plus Protein Assay (Pierce, Rockford, Ill.).
Nonspecific binding (NSB) was accounted for by the inclusion of thioperamide (10 μM). Samples were incubated for 40 minutes at 25° C. The samples were filtered through glass fiber strips, pre-washed with 0.3% polyethyleneimine, using a Brandell cell harvester. The filters were rapidly washed three times with 4 ml of 25 mM Tris buffer containing 145 mM NaCl (pH 7.4, 4° C.). Filters were transferred to polyethylene minivials and counted in 3.5 ml of scintillation fluid (Ecolume, ICN Biomedicals, Inc.). Using this procedure, the non-specific binding was less than 10% of the total binding and the binding to the glass fiber filters was negligible. Saturation and competition experiments were analyzed with the ReceptorFit saturation and competition curve fitting programs (Lundon Software, Inc., Cleveland, Ohio).

[1] = rat cortical membranes, 0.8-1.2 nM [3H]-Nα-methylhistamine, 40 minutes at 25° C., pH 7.4, read-out: H3 Receptor Ki
[2] = read-out: H3 Receptor Ki, rat cortical membranes, 0.8-1.2 nM [3H]-Nα-methylhistamine, 40 minutes at 25° C., pH 7.4

T1 sequence (Q9QYN8 whole entry): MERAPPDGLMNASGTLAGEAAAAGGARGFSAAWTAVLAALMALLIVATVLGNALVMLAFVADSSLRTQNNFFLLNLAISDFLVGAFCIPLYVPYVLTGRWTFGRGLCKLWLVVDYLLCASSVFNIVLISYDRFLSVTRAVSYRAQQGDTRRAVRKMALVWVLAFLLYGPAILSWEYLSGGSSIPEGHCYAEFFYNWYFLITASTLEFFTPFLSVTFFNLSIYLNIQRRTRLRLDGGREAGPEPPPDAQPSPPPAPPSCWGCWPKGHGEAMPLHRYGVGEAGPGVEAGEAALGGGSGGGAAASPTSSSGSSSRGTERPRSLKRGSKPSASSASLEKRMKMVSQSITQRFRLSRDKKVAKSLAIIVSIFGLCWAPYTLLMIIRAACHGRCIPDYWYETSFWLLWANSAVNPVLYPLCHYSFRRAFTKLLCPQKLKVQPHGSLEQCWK

| SMILES | Ki [1] [nM] | Ki [nM] | also measured |
| --- | --- | --- | --- |
| O=C(NCCCCC1CCCCC1)[C@@H]1C[C@H]1c1c[nH]cn1 (relative stereo) [Example 37, (±)-trans-N-(4-Cyclohexylbutyl)(2-imidazol-4-ylcyclopropyl)formamide] | 68 ± 9.1 |  |  |
| O=C(NCCCC1CCCCC1)[C@@H]1C[C@H]1c1c[nH]cn1 (relative stereo) [Example 29, N-[3-cyclohexylpropyl]-3(R)-[1H-imidazol-4-yl]-2(R)-cyclopropanamide and N-[3-cyclohexylpropyl]-3(S)-[1H-imidazol-4-yl]-2(S)-cyclopropanamide] |  | 36 ± 8 |  |
| O=C(N[C@@H]1C[C@H]1c1cnc[nH]1)OCCC1CCCC1 (relative stereo) [Example 49, (±)-trans-(2-Cyclopentylethoxy)-N-(2-imidazol-4-ylcyclopropyl) formamide] |  | 13 ± 1.5 |  |
| O=C(N[C@H]1C[C@@H]1c1c[nH]cn1)[C@@H]1CC2CCCCC2N1 (stereo partly drawn) [Example 15, (2S, 3S)-trans-(7-Azabicyclo[4.3.0]non-(S)-8-yl)-N-(2-imidazol-4-ylcyclopropyl)formamide] |  | 37 ± 4 |  |
| C(=C/[C@@H]1C[C@H]1c1c[nH]cn1)/CCC1CCCCC1 (relative stereo) [Example 16, (±)-trans4-(2-(4-Cyclohexylbut-cis-1-enyl)cyclopropyl)imidazole] |  | 12.2 ± 1 |  |
| O=C(NCC1CCCCC1)[C@H]1C[C@@H]1c1c[nH]cn1 [Example 2a] |  |  | Ki [2]: 23 ± 1 nM |
| O=C(NCC12CC3CC(CC(C3)C1)C2)[C@@H]1C[C@H]1c1c[nH]cn1 (relative stereo) [Example 8, (±)-trans-N-(adamantanylmethyl) (2-imidazol-4-ylcyclopropyl)formamide] | 55 ± 6 |  |  |
| O=C(N[C@@H]1C[C@H]1c1cnc[nH]1)OCc1ccccc1Br (relative stereo) [Example 50, (±)-trans-(2-Bromophenyl)methoxy)-N-(2-imidazol-4-ylcyclopropyl) formamide] |  | 8 ± 0.43 |  |
| C(=C/[C@H]1C[C@@H]1c1c[nH]cn1)/CCC1CCCCC1 [Example 24, (1S, 2S)-trans-4-(2-(4-Cyclohexylbut-cis-1-enyl)cyclopropyl)imidazole] | 108 ± 3 |  |  |
| C(#C[C@@H]1C[C@H]1c1cnc[nH]1)CCCCc1ccccc1 (relative stereo) [Example 41, (±)-4-(2-(6-Phenylhex-1-ynyl)cyclopropyl)imidazole] |  | 16 ± 0.6 |  |
| N[C@H](/C=C/[C@@H]1C[C@H]1c1c[nH]cn1)CC1CCCCC1 [Example 20, (1R,2R)-trans-1-Cyclohexyl-4-(2-imidazol-4-ylcyclopropyl)but-trans-3-en-2(S)-ylamine] |  |  | Ki [2]: 0.37 ± 0.2 nM |
| O=C(NCC1CCCCC1)[C@@H]1C[C@H]1c1c[nH]cn1 (relative stereo) [Example 2, (±)-trans-N-(cyclohexylmethyl)(2-imidazol-4-ylcyclopropyl)formamide] |  | 37 ± 4 |  |
| N[C@@H](Cc1ccc(I)cc1)C(=O)N[C@@H]1C[C@H]1c1cnc[nH]1 [Example 44] | 10.4 ± 1.6 |  |  |
| C(#C[C@@H]1C[C@H]1c1c[nH]cn1)CCC1CCCC1 (racemic) [Example 54, (±)-trans-4-(2-(4-Cyclopentylbut-1-ynyl)cyclopropyl)imidazole] |  | 1.43 ± 0.33 |  |
| CC(C)(C)CCC#C[C@H]1C[C@@H]1c1cnc[nH]1 [Example 52, (1S,2S)-trans-4-(2-(5,5-Dimethylhex-1-ynyl)cyclopropyl)imidazole] | 5.3 ± 0.5 |  |  |
| O=C(N[C@@H]1C[C@H]1c1cnc[nH]1)OCCCc1ccccc1 (relative stereo) [Example 47, (±)-trans-N-(2-imidazol-4-ylcyclopropyl)(3-phenylpropoxy)formamide] | 41 ± 3.4 |  |  |
| O=C(N[C@@H]1C[C@H]1c1c[nH]cn1)[C@@H]1CC2CCCCC2N1 (stereo partly drawn) [Example 14, (2R, 3R)-trans-(7-Azabicyclo[4.3.0]non-(S)-8-yl)-N-(2-imidazol-4-ylcyclopropyl)formamide] |  | 8.5 ± 0.7 |  |
| C[C@H](NC(=O)[C@@H]1C[C@H]1c1cnc[nH]1)C1CCCCC1 (mixture of isomers) [Example 7, N-[(S)-1-cyclohexylethyl]-3-(1H-imidazol-4-yl)- trans-(2R,3R)-cyclopropanamide and N-[(S)-1-cyclohexylethyl]-3-(1H-imidazol-4-yl)-trans-(2S,3S)-cyclopropanamide hydrochloride] | 146 ± 13 |  |  |

| SMILES | Ki [1] [nM] | Ki [nM] | also measured |
| --- | --- | --- | --- |
| OC(CCCC1CCCCC1)[C@@H]1C[C@H]1c1c[nH]cn1 (mixture of isomers) [Example 19, (±)-trans4-Cyclohexyl-1-(2-imidazol-4-ylcyclopropyl)butan-1-ol] | 160 ± 9 |  |  |
| CN(CC1CCCCC1)C(=O)[C@@H]1C[C@H]1c1c[nH]cn1 (racemic) [Example 11, (±)-trans-N-(cyclohexylmethyl)(2-imidazol-4-ylcyclopropyl)-N-methylformamide] | 134 ± 1 |  |  |
| O=C(Nc1ccccc1)[C@@H]1C[C@H]1c1c[nH]cn1 (relative stereo) [Example 5, N-(phenyl)-3-(1H-imidazol-4-yl)-trans-(2R,3R)-cyclopropanamide and N-(phenyl)-3-(1H-imidazol-4-yl)-trans-(2S,3S)-cyclopropanamide hydrochloride] | 267 ± 26 |  |  |
| O=C(NCCC1CCCCC1)C1CC1c1c[nH]cn1 [Example 28, (1R, 2R)-trans-N-(2-Cyclohexylethyl)(2-imidazol-4-ylcyclopropyl)formamide] | 46 ± 13 |  |  |
| O=C(NCCCC1CCCCC1)[C@H]1C[C@@H]1c1cnc[nH]1 [Example 30] |  | 42 ± 7 |  |
| CC(C)(C)CC/C=C\[C@H]1C[C@H]1c1c[nH]cn1 [Example 42, (1R,2R)-4-(2-(5,5-Dimethyl-cis-hex-1-enyl)cyclopropyl)imidazole] |  | 41 ± 4 |  |
| O=C(NCC(O)CC1CCCCC1)[C@@H]1C[C@H]1c1c[nH]cn1 (relative stereo) [Example 36, (±)-trans-N-(3-Cyclohexyl-2-(±)-hydroxypropyl)(2-imidazol-4-ylcyclopropyl)formamide] | 145 |  |  |
| N[C@H](/C=C\[C@@H]1C[C@H]1c1c[nH]cn1)CC1CCCCC1 [Example 21, (1R,2R)-trans-1-Cyclohexyl-4-(2-imidazol-4-ylcyclopropyl)but-cis-3-en-2(S)-ylamine] |  |  | Ki [2]: 97.7 ± 28 nM |
| O=C(NCC1CC1)[C@@H]1C[C@H]1c1c[nH]cn1 (relative stereo) [Example 32, (±)-trans-N-(Cyclopropylmethyl)(2-imidazol-4-ylcyclopropyl)formamide] | 876 ± 158 |  |  |
| O=C(N[C@@H]1C[C@H]1c1cnc[nH]1)OCCCC1CCCCC1 (relative stereo) [Example 48, (±)-trans-(3-Cyclohexylpropoxy)-N-(2-imidazol-4-ylcyclopropyl) formamide] | 55 ± 11 |  |  |
| N[C@@H](CC1CCCCC1)C(=O)N[C@H]1C[C@@H]1c1cnc[nH]1 [Example 13, (1S,2S)-trans-2-(S)-amino-3-cyclohexyl-N-(2-imidazol-4-ylcyclopropyl)propanamide] |  | 21.5 ± 1.8 |  |
| C(#C[C@@H]1C[C@H]1c1c[nH]cn1)CCC1CCCCC1 (racemic) [Example 55, (±)trans-4-(2-(4-cyclohexylbut-1-ynyl)cyclopropyl)imidazole] |  | 1.8 ± 0.64 |  |
| N[C@H](Cc1ccc(Br)cc1)C(=O)N[C@@H]1C[C@H]1c1c[nH]cn1 (racemic) [Example 43, (1R,2R)-trans-(±)-2-Amino-3-(4-bromophenyl)-N-(2-imidazol-4-ylcyclopropyl)propanamide] | 13.7 ± 1.5 |  |  |
| O=C(CCCC1CCCCC1)[C@@H]1C[C@H]1c1c[nH]cn1 (racemic) [Example 10, (±)-trans-4-cyclohexyl-1-(2-imidazol-4-ylcyclopropyl) butan-1-one] |  | 97 ± 21 |  |
| O=C(NCCc1c[nH]cn1)[C@@H]1C[C@H]1c1c[nH]cn1 (relative stereo) [Example 34, (±)-trans-(2-imidazol-4-ylcyclopropyl)-N-(2-imidazol-4-ylethyl) formamide] | 227 ± 26 |  |  |
| O=C(NCCc1ccccc1)[C@@H]1C[C@H]1c1c[nH]cn1 (relative stereo) [Example 9, (±)-trans-(2-imidazole-4-ylcyclopropyl)-N-(2-phenylethyl)formamide] | 163 ± 19 |  |  |
| O=C(NCCc1c[nH]c2ccccc12)[C@@H]1C[C@H]1c1c[nH]cn1 (relative stereo) [Example 35, (±)-trans-(2-imidazol-4-ylcyclopropyl)-N-(2-indol-3-ylethyl) formamide] | 441 ± 73 |  |  |
| O=C(NCc1ccccc1)[C@@H]1C[C@H]1c1c[nH]cn1 (relative stereo) [Example 1, N-(1-benzyl)-3-[(1H-imidazol-4-yl)]-(2R,3R)-trans-cyclopropanamide and N-(1-benzyl)-3-[(1H-imidazol-4-yl)]-(2S,3S)-trans-cyclopropanamide hydrochloride] |  | 53 ± 2 |  |
